Data: US20070270348A1, “Compositions and Methods for Modulating Insulin-Activated Nitric Oxide Synthase” (priority 2004, published 2007)
“Also recorded” adds a separate entry of the source. Where two headings read alike, the source gives them in different places. One block for each compound: values may come before it. Ends that are not written are not given here.

Key:
human erythrocytes = experiment: Stimulation of nitric oxide synthesis from l-arginine in human erythrocyte suspension; type: cell-based
Description: Stimulation of nitric oxide synthesis from l-arginine by allimin in human erythrocytes was shown by incubation of a human erythrocyte suspension with different concentrations of purified allimin.
Fractions (1.5 ml each) were collected and the ability of each fraction to stimulate nitric oxide synthesis from l-arginine in human erythrocytes was determined.
The stimulation of nitric oxide synthesis was determined by assaying 0.1 ml of aqueous extracts of garlic or benzene purified allimin or different fractions from the SEPHADEX® column to erythrocyte suspensions in Kreb's buffer, pH 7.4. The formation of nitric oxide in the reaction mixture was quantitated by the conversion of oxyhemoglobin to methemoglobin. Quantitative amounts of nitric oxide in the reaction mixture were confirmed independently by chemiluminescence technique. Briefly 1.0 ml of the reaction supernatant was treated with 15 mM (final concentration) of oxyhemoglobin under N2. The spectral changes at 650, 630 and 575 nm due to the conversion of oxyhemoglobin to methemoglobin was continuously monitored by using a scanning BECKMAN spectrophotometer to quantitate nitric oxide formation using greater than 99% percent pure preparation of nitric oxide.
Blood was collected from healthy male and female volunteers, between the ages of 25-50 years, who had not taken any medication for at least for 14 days prior to the donation of blood. The blood was anti-coagulated by adding 1 volume 130 mM sodium citrate to 9 volumes of blood, mixed by gentle inversion, and the erythrocyte suspension was prepared.

[1] = test system: ADP-induced platelet aggregation; experiment: ADP-induced platelet aggregation in platelet rich plasma; type: cell-based; conditions: 40 nM, 30 minutes at 23° C., 6 μM ADP
Description: Given the role of nitric oxide in the function of platelets it is was determined whether allimin could modulate platelet aggregation. Platelet Rich Plasma (PRP) was isolated from citrated blood and incubated with […] Allimin for 30 minutes at 23° C. Subsequently, 6 μM adenosine 5′-diphosphate (ADP) was added and inhibition of ADP-induced platelet aggregation was recorded and compared with a control.

EAC cells = experiment: Viability of EAC cells in peritoneal fluid; type: in vivo, Swiss albino mice
Description: Experiments were performed to determine the effects of allimin on the viability of EAC cells, a measure of the anti-neoplastic activity of allimin. Total EAC count (dead+viable cells) in peritoneal fluid was determined after 14 days of injection of EAC in the allimin treated and the untreated mice. […] It was noted that 25% of the viable EAC in the fluid of allimin-treated mice were twice as large (size) as compared to those in the untreated mice. This increase in cell size is indicative of the onset of death and the loss of the ability to regulate osmotic pressure (Ballas (1999) Merck Manual, Merck Research Laboratories, Whitehouse Station, N.J., pp. 1002-1023). The cellular basis for the decreased viability of the carcinoma cells in the allimin-treated mice was tested using a DNA fragmentation assay (Liu et al. (2000) Nucleic Acids Res. 28:4180-4188).

[2] = test system: mice epitrochlearis muscle; experiment: Glucose oxidation in epitrochlearis muscle; type: cell-based; conditions: insulin 200 μU/ml, allimin 50 μg/ml, NAME 10 μg/ml, mean ± SD
Description: (§1) The in vitro effect of allimin on glucose transport and glucose oxidation was compared with that of insulin in mice epitrochlearis muscle which is reported to be a model target tissue for insulin action. […] Addition of NAME to the incubation mixture inhibited the insulin-mimicking effect of allimin on both glucose transport and glucose oxidation. In another study, membranes from epitrochlearis muscle were prepared and the effect of allimin on the activation of the membrane tyrosine kinase and PI3 kinase were determined by incubating the membrane preparation with either insulin or allimin.
The effect of allimin on the oxidation of glucose was compared with that of insulin. […] Glucose oxidation was determined.
(§2) Mice epitochlearis muscle and the membrane of the muscle were prepared. Glucose transport activity was determined by incubating […] of epitochlearis muscle in Krebs-Ringer buffer, pH 7.4, in the presence of either insulin ([…]) or allimin ([…]) using a 2-deoxy D-^14C glucose. Glucose oxidation was determined by incubating […] of epitrochlearis muscle in Krebs-Ringer buffer, pH 7.4, in the presence of either insulin or allimin as indicated using U-14C glucose. […]

PI3 kinase = PI3 kinase activation of muscle membrane; type: biochemical, mice; conditions: insulin 200 μU/ml, allimin 50 μg/ml, none = 100, mean ± SD
Description: as §1
The activation of PI3 kinase of mice epitrochlearis muscle membrane either by allimin or insulin was determined using PI3 kinase antibody. […] The PI3 kinase activity was determined by CHCl3—CH3OH extraction and HPLC.
as §2

membrane tyrosine kinase = experiment: Membrane tyrosine kinase activation; type: biochemical, mice; conditions: insulin 200 μU/ml, allimin 50 μg/ml, none = 100, mean ± SD
Description: as §1
The effect of allimin on the activation of epitrochlearis muscle membrane was determined using monoclonal anti-phosphotyrosine kinase antibody, Glu^80 Tyr^80 copolymer, and [^32P]-ATP and compared with that of insulin.
as §2

[3] = test system: non-diabetic and alloxan-induced diabetic mice; experiment: Plasma nitric oxide level after oral administration in mice; type: in vivo
Description: The effect of oral administration of allimin on the plasma nitric oxide level in diabetic and non-diabetic mice was determined using alloxan-induced diabetic mice as compared to normal non-diabetic mice. […] Allimin was orally administered (75 μg/kg body weight) to non-diabetic and alloxan-induced diabetic mice. The plasma nitric oxide level was measured on different days. Results were obtained from 10 mice in each group in triplicate. While the plasma nitric oxide level in the diabetic mice was 0.1±0.02 nmol/ml, the nitric oxide level in the non-diabetic mice was 0.75±0.05 nmol/ml (p<0.05). Upon oral administration of allimin (75 micrograms/kg body weight), the plasma nitric oxide level was increased to 0.45±0.05 nmol/ml within 24 hours and continued to increase thereafter, to a maximum of 0.8±0.1 nmol/ml on the third day. On the fourth day, the plasma nitric oxide level began to gradually decrease. On the sixth day, the plasma nitric oxide level returned to the pretreatment level in the diabetic mice.
A total of 60 mice were studied.

mouse erythrocytes = experiment: Nitric oxide production in erythrocytes of mice injected with EAC cells; conditions: for NO produced by erythrocytes: EAC mice, allimin 75 micrograms/kg/day oral
Description: Using a well-established mouse model for anti-neoplastic drug testing (Hartveit et al. (1970) Acta. Pathol. Microbiol. Scand. 78:516-524), the effects of oral administration of allimin on the production of nitric oxide in mouse erythrocytes was examined. Blood was drawn from the tail vein of Swiss albino mice (2 months of age) and was anti-coagulated by adding sodium citrate to the blood sample. The erythrocyte suspension was prepared according to standard methods (Ray et al. (1986) Biochim. Biophys. Acta. 856:421-427). […] The formation of nitric oxide in the reaction mixture was quantitated by the conversion of oxyhemoglobin to methemaglobin (Jia et al. (1996) Nature 380:221-226) and verified by chemiluminescence techniques (Sinha et al. (1999) Life Sci. 265:2687-2696). In addition to normal or control mice, ascitic carcinoma was induced in Swiss albino mice by injecting approximately 10^6 Ehrlich's ascitic carcinoma cells (EAC cells) into the peritoneal cavity of mice (Hartveit et al. (1970) Acta. Pathol. Microbiol. Scand. 78:516-524). Animals were divided into two groups, one group receiving laboratory chow alone and the other receiving allimin (75 micrograms/kg body weight/day) along with laboratory chow. Animals in each group were given the respective diets for 10 days before both groups were injected with EAC cells. Dietary treatment then continued during ascites development such that an increase of an EAC cell count to 5×10^6 cells/ml was achieved.
For the preparation of erythrocyte suspensions from mice, blood was drawn from the tail vein and anti-coagulated by adding sodium citrate to the blood sample and a suspension was made as described by Ray et al. ((1986) Biochim. Biophys. Acta 856:421-427).

[4] = test system: Ehrlich's ascitic carcinoma cells (EAC cells); experiment: Survival and body weight of mice with Ehrlich's carcinoma ascites; conditions: daily allimin
Description: In addition to normal or control mice, ascitic carcinoma was induced in Swiss albino mice by injecting approximately 10^6 Ehrlich's ascitic carcinoma cells (EAC cells) into the peritoneal cavity of mice (Hartveit et al. (1970) Acta. Pathol. Microbiol. Scand. 78:516-524). Animals were divided into two groups, one group receiving laboratory chow alone and the other receiving allimin (75 micrograms/kg body weight/day) along with laboratory chow. Animals in each group were given the respective diets for 10 days before both groups were injected with EAC cells. Dietary treatment then continued during ascites development such that an increase of an EAC cell count to 5×10^6 cells/ml was achieved.

[5] = test system: mice epitrochlearis muscle; experiment: Glucose transport activity in epitrochlearis muscle; type: cell-based; conditions: insulin 200 μU/ml, allimin 50 μg/ml, NAME 10 μg/ml, mean ± SD
Description: as §1
Mice epitochlearis muscle and the membrane of the muscle were prepared. Glucose transport activity was determined by incubating […] of epitochlearis muscle in Krebs-Ringer buffer, pH 7.4, in the presence of either insulin ([…]) or allimin ([…]) using a 2-deoxy D-^14C glucose. Glucose oxidation was determined by incubating […] of epitrochlearis muscle in Krebs-Ringer buffer, pH 7.4, in the presence of either insulin or allimin as indicated using U-14C glucose. Insulin- or allimin-induced activation of tyrosine kinase and PI3 kinase activities of the membrane preparation were determined using anti-phosphotyrosine antibody and PI3 kinase antibody, respectively, as described. Results shown in Table 4 are mean ±SD of 5 to 6 experiments using different animals.

[6] = test system: alloxan-induced diabetic mice; conditions: for duration of euglycemia / normal glucose levels after one dose: single oral bolus; for plasma glucose level: oral allimin
Description: To determine whether the increased plasma nitric oxide level achieved through the oral administration of allimin would result in the decrease of elevated plasma glucose levels in diabetic mice, the plasma glucose level was continuously monitored. […] In a further study, diabetic mice were injected with insulin (200 μunits/25 g) in their hind leg muscle instead of oral administration of allimin.
Inbred albino mice of both sexes were raised in an institutional facility from birth to age 2 months and weighed between 20-25 grams. These mice were allowed free access to feed and sterile water under 12 hour cycles of alternating light and dark. A total of 60 mice were studied. Group I consisted of 20 mice that were divided into 4 subgroups of 5 mice per subgroup. […] Group II consisted of 20 mice that were divided in 4 groups, 5 mice in each subgroup. All of the mice were made diabetic, one of the diabetic subgroup of mice received insulin and the second diabetic subgroup received oral administration of allimin.
Alloxan was used to induce diabetes in mice in accordance with standard methods. Blood glucose levels were determined by using glucose oxidase strips in a glucometer. The mice were considered to be diabetic when the blood glucose level after overnight fasting were 250-300 mg/dl as compared to 70-80 mg/dl in non-diabetic mice. […] When these diabetic mice were fed ad libitum, the blood glucose level increased to 400-450 mg/dl after 2 hours of feeding.

Compound: COC(=O)[C@@H](N)CCCNC(=N)N[N+](=O)[O-] [NAME, NG-nitro L-arginine methyl ester, reference compound]
inhibition of allimin-stimulated nitric oxide synthesis (human erythrocytes; 10 μM NAME added to reaction mixture with allimin): completely inhibited; also recorded: complete inhibition

Compound: Allimin (XMIPTNGEGLYAGQSLDVEQYKFIMRPDDNLVXYX; X: residue not identified in the source; listed as Allium sp.)
inhibition of ADP-induced platelet aggregation [1]: potent inhibitor of platelet aggregation | total EAC count (dead+viable cells) in peritoneal fluid (EAC cells; 14 days after injection of EAC): 7×10^6 cells/ml | dead EAC count in peritoneal fluid (EAC cells; 14 days after injection of EAC, untreated 3×10^4): 2×10^5 cells/ml | pathway of EAC cell death (DNA fragmentation assay) (EAC cells; oral allimin): induced the necrotic pathway | viable EAC twice as large as in untreated mice (EAC cells; peritoneal fluid of treated mice): 25% | Glucose Oxidation [2]: 306 ± 82 nmol/g protein/minute | PI3 kinase activation (PI3 kinase): 187 ± 12 % activation | Tyrosine kinase activation (membrane tyrosine kinase): 215 ± 10 % activation | duration of elevation of plasma nitric oxide ([3]; diabetic mice, one time oral bolus dose): about five days; also recorded: four to five days | day plasma nitric oxide level returned to pretreatment level ([3]; diabetic mice, single oral 75 micrograms/kg): sixth day | plasma nitric oxide level, maximum ([3]; diabetic mice, single oral 75 micrograms/kg, third day): 0.8 ± 0.1 nmol/mL | plasma nitric oxide level ([3]; diabetic mice, single oral 75 micrograms/kg, within 24 hours, pretreatment 0.1±0.02): 0.45 ± 0.05 nmol/mL | day plasma nitric oxide level decreased to pretreatment level ([3]; non-diabetic mice, oral feeding): fourth day | nitric oxide production from erythrocytes restored to (mouse erythrocytes; allimin fed 10 days after the carcinogenic insult, 4.02% without): 92.78% | NO produced by erythrocytes (mouse erythrocytes; day 1): 0.569 ± 0.02 nmol NO produced/10^8 cells/hour | NO produced by erythrocytes (mouse erythrocytes; day 5): 0.392 ± 0.01 nmol NO produced/10^8 cells/hour | NO produced by erythrocytes (mouse erythrocytes; day 10): 0.408 ± 0.02 nmol NO produced/10^8 cells/hour | NO produced by erythrocytes (mouse erythrocytes; day 15): 0.440 ± 0.01 nmol NO produced/10^8 cells/hour | NO produced by erythrocytes (mouse erythrocytes; day 20): 0.498 ± 0.02 nmol NO produced/10^8 cells/hour | NO produced by erythrocytes (mouse erythrocytes; day 25): 0.532 ± 0.02 nmol NO produced/10^8 cells/hour | NO produced by erythrocytes (mouse erythrocytes; day 30): 0.528 ± 0.03 nmol NO produced/10^8 cells/hour | reduction of nitric oxide production in erythrocytes (mouse erythrocytes; twenty days after EAC injection, dietary allimin, 86.72% without): 12.48% | survival at 20 days ([4]; controls succumbed by day 20): survived the EAC carcinogenic insult at 20 days | mice surviving at least 40 days ([4]; p<0.01): Ten percent | concentration at which synthesis of nitric oxide was maximally stimulated (human erythrocytes; human erythrocyte suspension): 8 nM | Specific Activity (nmol NO/mg/h) (human erythrocytes; purification step of garlic extract, stimulation of NO synthesis): 563.75 nmol NO/mg/h | Glucose transport [5]: 82 ± 6 nmol/g protein/minute | duration of euglycemia / normal glucose levels after one dose ([6]; diabetic animals): up to four or five days | duration of euglycemia / normal glucose levels after one dose ([6]; diabetic animals, listed as allimin): four to five consecutive days | plasma glucose level ([6]; diabetic mice, next four days): 120 to 130 mg/dL | plasma glucose level ([6]; diabetic mice, sixth day): above 350 mg/dl | plasma glucose level ([6]; diabetic mice, within next 12 hours, initial 470±20): 120 ± 10 mg/dL

Tyrosine kinase activation (membrane tyrosine kinase): 210 ± 18 % activation
Compound: Insulin: Insulin (trade name HUMULIN, obtained from Eli Lilly) [reference compound]
Glucose Oxidation [2]: 278 ± 80 nmol/g protein/minute | PI3 kinase activation (PI3 kinase): 155 ± 10 % activation | Glucose transport [5]: 75 ± 4 nmol/g protein/minute | duration of control of hyperglycemia ([6]; diabetic animals, single intramuscular injection): less than 24 hours | blood glucose level after injection ([6]; diabetic mice, 200 μunits/25 g in hind leg muscle, within next 24 hours): 350 ± 20 mg/dL | effect of oral administration on elevated blood glucose level ([6]; diabetic mice, oral): no effect
